Measurements: patent US10702512B2, “Treatment of debilitating fatigue” (A. CARLSSON RESEARCH AB, priority 2015, dated 2020)

Assays:
Assay type in all cases: in vivo, human
ME/CFS patients [1] = test: Clinical Global Impression of Change (CGI-C), phase II clinical study; conditions: for patients exhibiting improved CGI-C values: entire population
Experimental: As used herein “Clinical Global Impression of Change” (CGI-C) (also known as Clinical Global Impression—Improvement (CGI-I)) scale is a 7 point scale that requires the clinician to assess how much the patient's illness has improved or worsened relative to a baseline state at the beginning of the intervention. […] Circular coated tablets for oral use of 15 mg and matching placebos was used. The tablets were administered by research nurses at the study site. The tablets were circular coated tablets for oral use containing 15 mg OSU6162. Matching placebos were used. The start dose was 15 mg OSU6162 twice daily (before breakfast and lunch) during 1 week with dose increase up to 30 mg twice daily during the following week. Efficacy was measured according to ratings using the self-assessment questionnaire for mental fatigue and related symptoms (MFS) after neurological disorders and injuries (Johansson et al, supra). Another primary endpoint was the result of the rating by the Clinical Global Impression of Change (Guy, supra), which rating was made by the doctor in charge of the patient. CGI-C scores range from 1 (very much improved) through to 7 (very much worse). Clinical Global Impression of Change (CGI-C) was evaluated by the clinician for each patient.

ME/CFS patients [2] = test: Barrow Neurological Institute Screen for Higher Cerebral Functions (BNIS)
Experimental: Next, patients were evaluated using a neuropsychological test. 61 patients were included in a neuropsychological examination. All subjects were tested once in connection with the randomization with the BNIS neuropsychological screening test. 20-30 minutes was required for this test. With the purpose of measuring the cognitive effects of the OSU6162 treatment six more tests were distributed at a first occasion before the initiation of treatment and at a second occasion after the treatment was completed. These tests required 20 minutes each. All tests were performed by a neuropsychologist. Barrow Neurological Institute Screen for Higher Cerebral Functions (BNIS) is a screening test constructed to quantitatively and qualitatively reflect the outcome of a range of higher cerebral functions. The three initial items are pre-screening items where arousal level, basic communication skills and level of cooperation are assessed (a maximum score of 9) to decide whether the status of the patients allows further testing. At least two points in each item are required. The BNIS contains the following domains: speech and language (maximum score 15), orientation (maximum score 3), attention/concentration (maximum score 3), visual and visual spatial problem solving (maximum score 8), learning and memory (maximum score 7), affect (maximum score 4) and awareness vs. performance (maximum score 1). The test provides a total score=50 of overall cognitive functioning and subscale scores. A score less than 47 indicates brain dysfunction.

ME/CFS patients [3] = test: Coding test (WAIS subtest); parameters: key to Coding test score, min / Coding test score, max / Coding test, Difference, increased mean / Coding test score, mean / Coding test score, median: number of symbols correctly copied within 90 seconds
Experimental: Next, patients were evaluated using a neuropsychological test. 61 patients were included in a neuropsychological examination. All subjects were tested once in connection with the randomization with the BNIS neuropsychological screening test. 20-30 minutes was required for this test. With the purpose of measuring the cognitive effects of the OSU6162 treatment six more tests were distributed at a first occasion before the initiation of treatment and at a second occasion after the treatment was completed. These tests required 20 minutes each. All tests were performed by a neuropsychologist. The Coding test is a subtest from WAIS, Wechsler Adult Intelligence Scale and measures the processing speed. The performance reflects abilities such as visual-motor coordination, motor and mental speed and working memory. It requires the subject to copy, as quickly and correctly as possible, nine symbols, one by one in 93 boxes, placed below each number. The symbol connected with the numbers is available. The score is the number of symbols registered within 90 seconds.

ME/CFS patients [4] = test: Trail making test A (TMT A)
Experimental: Next, patients were evaluated using a neuropsychological test. 61 patients were included in a neuropsychological examination. All subjects were tested once in connection with the randomization with the BNIS neuropsychological screening test. 20-30 minutes was required for this test. With the purpose of measuring the cognitive effects of the OSU6162 treatment six more tests were distributed at a first occasion before the initiation of treatment and at a second occasion after the treatment was completed. These tests required 20 minutes each. All tests were performed by a neuropsychologist. Trail making test A (TMT A) requires the subject to draw a line as quickly as possible connecting a series of numbers. It is a time-based measure of attention, where time and quality are noted and requires motor effectiveness, visual scanning, speed and flexibility. The test has a high sensitivity for brain dysfunction.

ME/CFS patients [5] = test: Trail making test B (TMT B)
Experimental: Next, patients were evaluated using a neuropsychological test. 61 patients were included in a neuropsychological examination. All subjects were tested once in connection with the randomization with the BNIS neuropsychological screening test. 20-30 minutes was required for this test. With the purpose of measuring the cognitive effects of the OSU6162 treatment six more tests were distributed at a first occasion before the initiation of treatment and at a second occasion after the treatment was completed. These tests required 20 minutes each. All tests were performed by a neuropsychologist. […] The subject follows a mental track and the test requires the ability to handle more than one stimulus at a time, as well as flexibility in shifting between different activities. It has a high sensitivity for brain dysfunction and is regarded to be related to prefrontal functioning.

ME/CFS patients [6] = test: neuropsychological tests of cognitive functioning, overall; conditions: all neuropsychological tests employed; no significant difference vs placebo
[7] = OSU6162 group, tested once in connection with randomization

## CCCN1CCC[C@@H](c2cccc(S(C)(=O)=O)c2)C1.Cl [OSU6162, (3S)-3-[3-(methylsulfonyl)-phenyl]-1-propylpiperidine hydrochloride]
ME/CFS patients [1]; after one week of treatment (15 mg twice daily, oral), 13 of 30
  patients exhibiting improved CGI-C values: 43%
ME/CFS patients [1]; after two weeks of treatment (30 mg twice daily in week 2, oral), 17 of 30
  patients exhibiting improved CGI-C values: 57%
ME/CFS patients [1]; entire patient population
  difference in CGI-C between treatment groups (OSU6162 vs placebo): no significant difference
ME/CFS patients [1]; subgroup receiving concomitant antidepressant treatment, after one week, Mann-Whitney U-test p=0.0524
  CGI-C improvement vs placebo: clear tendency after one week for a greater improvement
ME/CFS patients [2]; [7]
  BNIS total score, max: 50
  BNIS total score, mean: 45.2
  BNIS total score, min: 33
ME/CFS patients [2]; in vivo
  BNIS difference between OSU6162 and placebo groups: No significant difference
ME/CFS patients [3]; after treatment
  Coding test score, max: 93
  Coding test score, mean: 56.29
  Coding test score, median: 56
  Coding test score, min: 37
ME/CFS patients [3]; after vs before treatment
  Coding test, Difference, increased mean: 5
ME/CFS patients [3]; before and after treatment
  Coding test difference between OSU6162 and placebo groups: No significant differences
ME/CFS patients [3]; before treatment
  Coding test score, max: 80
  Coding test score, mean: 51.42
  Coding test score, median: 51
  Coding test score, min: 31
ME/CFS patients [4]; after treatment
  TMT A, max: 48 s
  TMT A, mean: 28.5
  TMT A, median: 29
  TMT A, min: 15
ME/CFS patients [4]; before and after treatment
  TMT A difference between OSU6162 and placebo groups: No significant differences
ME/CFS patients [4]; before treatment
  TMT A, max: 57 s
  TMT A, mean: 33.4
  TMT A, median: 32
  TMT A, min: 16
ME/CFS patients [4]; before vs after treatment
  TMT A, Difference: 10
ME/CFS patients [5]; after treatment
  TMT B, max: 145 s
  TMT B, mean: 61.2
  TMT B, median: 29
  TMT B, min: 31
ME/CFS patients [5]; before and after treatment
  TMT B difference between OSU6162 and placebo groups: No significant differences
ME/CFS patients [5]; before treatment
  TMT B, max: 134 s
  TMT B, mean: 71.7
  TMT B, median: 32
  TMT B, min: 44
ME/CFS patients [5]; before vs after treatment
  TMT B, Difference: 10
ME/CFS patients [6]
  effect of treatment on cognitive abilities: does not affect the cognitive abilities
